Experimental data: publication PMC7391777, “Inhibition of acetyl-CoA carboxylase by spirotetramat causes growth arrest and lipid depletion in nematodes” (Scientific Reports, 2020)

Molecular target: T1, C. elegans ACC (POD-2) (Caenorhabditis elegans, UniProt H2L0M0)
T1 construct: native enzyme in total protein extract of C. elegans pellet, not purified
Experiment: ACC activity in total protein extract, radiolabeled sodium bicarbonate
Type: biochemical
Conditions: total protein extract of C. elegans

T1 sequence (H2L0M0 1-2165): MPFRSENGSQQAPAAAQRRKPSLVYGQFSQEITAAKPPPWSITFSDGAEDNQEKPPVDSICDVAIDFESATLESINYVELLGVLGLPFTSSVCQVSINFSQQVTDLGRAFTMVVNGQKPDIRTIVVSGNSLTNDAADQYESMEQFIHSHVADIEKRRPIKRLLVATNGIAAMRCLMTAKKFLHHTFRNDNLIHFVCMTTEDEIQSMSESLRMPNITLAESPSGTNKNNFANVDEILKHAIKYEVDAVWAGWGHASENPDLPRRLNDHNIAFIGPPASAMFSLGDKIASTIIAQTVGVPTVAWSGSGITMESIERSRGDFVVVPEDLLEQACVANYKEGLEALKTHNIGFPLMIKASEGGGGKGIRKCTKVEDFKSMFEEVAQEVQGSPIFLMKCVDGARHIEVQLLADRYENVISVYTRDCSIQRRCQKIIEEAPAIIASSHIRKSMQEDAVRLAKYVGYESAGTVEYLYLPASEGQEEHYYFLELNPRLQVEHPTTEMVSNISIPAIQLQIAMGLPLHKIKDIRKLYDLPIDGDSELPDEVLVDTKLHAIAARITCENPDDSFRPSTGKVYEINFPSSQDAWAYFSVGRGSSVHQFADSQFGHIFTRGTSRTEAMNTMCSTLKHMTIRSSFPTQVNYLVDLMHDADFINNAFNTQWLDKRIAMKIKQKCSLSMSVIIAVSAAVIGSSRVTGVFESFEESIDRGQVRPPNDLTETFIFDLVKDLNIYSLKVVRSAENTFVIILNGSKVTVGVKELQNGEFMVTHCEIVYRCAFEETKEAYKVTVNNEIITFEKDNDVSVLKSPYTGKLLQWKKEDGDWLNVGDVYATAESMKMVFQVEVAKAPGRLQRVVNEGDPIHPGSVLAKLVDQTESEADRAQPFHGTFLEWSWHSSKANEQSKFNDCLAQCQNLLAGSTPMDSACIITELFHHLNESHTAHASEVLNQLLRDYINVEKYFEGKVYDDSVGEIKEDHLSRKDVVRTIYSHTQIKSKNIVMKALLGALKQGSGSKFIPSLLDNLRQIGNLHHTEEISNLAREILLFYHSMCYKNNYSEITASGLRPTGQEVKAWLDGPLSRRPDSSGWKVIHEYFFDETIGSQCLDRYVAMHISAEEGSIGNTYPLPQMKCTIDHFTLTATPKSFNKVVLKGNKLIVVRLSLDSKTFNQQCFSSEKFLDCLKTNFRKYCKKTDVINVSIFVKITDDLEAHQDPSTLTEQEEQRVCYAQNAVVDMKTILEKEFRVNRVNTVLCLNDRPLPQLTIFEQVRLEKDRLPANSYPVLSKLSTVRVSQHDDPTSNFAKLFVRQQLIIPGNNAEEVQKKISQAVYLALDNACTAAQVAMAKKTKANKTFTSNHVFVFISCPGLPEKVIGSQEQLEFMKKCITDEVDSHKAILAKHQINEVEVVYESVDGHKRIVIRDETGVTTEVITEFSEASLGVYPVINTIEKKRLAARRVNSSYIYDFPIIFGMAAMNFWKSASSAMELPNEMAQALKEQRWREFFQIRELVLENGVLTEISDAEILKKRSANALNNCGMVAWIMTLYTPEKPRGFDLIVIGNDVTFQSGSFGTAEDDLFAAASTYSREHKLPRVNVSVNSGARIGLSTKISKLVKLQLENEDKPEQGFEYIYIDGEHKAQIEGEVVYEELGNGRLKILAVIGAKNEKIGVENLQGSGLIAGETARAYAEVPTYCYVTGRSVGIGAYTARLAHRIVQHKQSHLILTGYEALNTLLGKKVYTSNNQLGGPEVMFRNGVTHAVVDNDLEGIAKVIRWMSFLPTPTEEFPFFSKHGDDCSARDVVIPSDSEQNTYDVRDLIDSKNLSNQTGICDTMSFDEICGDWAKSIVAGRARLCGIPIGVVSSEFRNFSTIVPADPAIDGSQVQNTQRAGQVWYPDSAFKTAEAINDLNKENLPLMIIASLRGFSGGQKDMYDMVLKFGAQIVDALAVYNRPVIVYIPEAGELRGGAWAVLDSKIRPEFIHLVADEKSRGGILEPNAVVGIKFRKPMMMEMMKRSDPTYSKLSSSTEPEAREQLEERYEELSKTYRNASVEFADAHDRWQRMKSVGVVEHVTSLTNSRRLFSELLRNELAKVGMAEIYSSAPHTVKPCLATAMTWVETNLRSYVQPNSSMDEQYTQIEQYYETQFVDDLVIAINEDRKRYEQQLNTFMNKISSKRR

Structure (SMILES): COC1CCC2(CC1)NC(=O)C(c1cc(C)ccc1C)=C2O (stereo not shown) [SPT-enol]
- IC50: 50 µM
